Measured values as given in US10570177B2, “P3 peptidylic inhibitors for treating CAG-repeat RNA toxicity in polyglutamine diseases” (The Chinese University of Hong Kong, priority 2017, dated 2020).
Marks after values point to notes of the source that are not given here. Residues, ends and D or L forms follow the SMILES beside them. *: point of attachment. Palmitoyl = CCCCCCCCCCCCCCCC(=O)*

Tests used:
DsRedCAG100 flies = experiment: Pseudopupil assay in DsRedCAG100 Drosophila (expanded CAG RNA neurodegeneration); assay type: in vivo; conditions: for suppression of neurotoxicity / retinal degeneration: DsRedCAG100 flies, in words
Description: Here the DsRedCAG0/100Drosophila model was utilized to investigate the suppressive effects of the P3 analogs on RNA toxicity. In this model, the CAG repeat is located in the 3′ untranslated region of the DsRed reporter gene-=. The transcribed expanded CAG RNA is not translated into polyQ protein, and thus the toxicity is solely attributed to the expression of DsRedCAG100 RNA. In brief, the expression of expanded CAG RNA causes severe retinal degeneration in the animal that can be quantified by a pseudopupil assay^7. Inhibitors that can suppress neurotoxicity will result in the recovery of the number of rhabdomeres within the ommatidium. To test the derivatives, third instar larvae were fed different amounts of peptide dissolved in sucrose solution for 2 hr and then allowed to culture in standard fly food until the flies were 12 days old, at which time they were sacrificed for the pseudopupil assay.
(§1) Flies were raised at 21.5° C. on cornmeal medium supplemented with dry yeast. Fly lines bearing UAS-DsRedCAG0 and UAS-DsRedCAG100 were kind gifts of Professor Nancy Bonini (University of Pennsylvania, USA). The gmr-GAL4 fly line was obtained from Bloomington Drosophila Stock Center. For pseudopupil assay, third instar larvae were fed with various amount of respective peptides dissolved in 2% sucrose solution for 2 hr and then continued to culture in standard fly food at 21.5° C.^38. Pseudopupil assay was performed on 12 day-old adult flies as mentioned previously^39. Images were captured by SPOT Insight CCD camera controlled by the SPOT Advanced software (Diagnostic instruments Inc.). Image processing was performed using the Adobe Photoshop CS software (Adobe). Each experiment was repeated at least 3 times (n=10 fly heads), and consistent results were obtained. For viability test of wild-type flies from egg to adult stage, eggs born within 5 hr were collected and cultured in fly food containing 10 or 50 μM of respective peptides at 21.5° C. Viability from egg-to-adult was calculated as the number of adult flies collected divided by the number of eggs examined. Each experiment was repeated for three times (at least 130 eggs were examined in each group). Two batches of independently synthesized peptides were used in the experiments.

[1] = system: EGFPCAG78 RNA-expressing HEK293 cells; assay type: cell-based
Description: HEK293 cells were cultured at 37° C. with 5% CO2 in DMEM supplemented with 10% FBS and 1% penicillin-streptomycin. Primary rat cortical neurons were isolated and cultured as previously described^37. Transient transfection of HEK293 cells was performed using Lipofectamine 2000 (Life Technologies). P3V8 were delivered to HEK293 cells using the DeliverX (DX) Peptide Transfection Kit (Affymetrix) 4 hr after DNA transfection. At least two batches of independently synthesized peptides were used in the experiments.
HEK 293 cells were seeded on a 24-well plate at a density of 0.5×10^5, and pEGFPCAG78 DNA construct was used to transfect the cells. For P3V8 treatment, different concentrations of P3V8 as indicated in the figure were transfected by DeliverX transfectant 4 hr after DNA transfection. […] Seventy-two hours after treatment, LDH enzyme activity in the cell culture medium was measured as described before. Experimental groups were normalized to the untransfected control. After normalization, data were analyzed using the dose response-inhibition curve (nonlinear regression-variable slope) to determine the IC50 value (Prism6 software, GraphPad Software, Inc.). Each experiment was repeated at least 3 times.

HEK293 cells = experiment: Cellular uptake studies in HEK293 cells (LC/MS); assay type: in vitro ADME; conditions: 3 hr; for cellular uptake: 100 nM peptide
Description: HEK293 cells were seeded on a 6-well plate at a density of 6×10^5 and cultured overnight at 37° C. with 5% CO2 in DMEM supplemented with 10% FBS and 1% penicillin-streptomycin. Cells were then treated with 100, 500 or 1000 nM of respective peptide at 37° C. for 3 hr. After treatment, the cells were washed with ice-cold PBS and then lysed by 2% SDS solution. Aliquot (100 μl) of the cell lysate was added with 200 μl acetonitrile and centrifuged at 13000 rcf for 10 min to precipitate the proteins. The collected supernatant was subjected to LC/MS analysis. The protein concentration of the cell lysate was measured using a bicinchoninic acid protein assay kit following Sigma's protocol.

[2] = In vitro stability in rat brain homogenate; assay type: in vitro ADME; conditions: 37° C.
Description: Sprague-Dawley (SD) rats (male, 180-200 g) were supplied by the Laboratory Animal Services Centre at The Chinese University of Hong Kong. All animal studies were conducted under the approval of the Animal Ethics Committee of The Chinese University of Hong Kong, and were performed in accordance with relevant guidelines and regulations. Blank rat brain homogenate was prepared by ultrasonic probe homogenization (Micoson XL-2000, Misonix, Framingdale, N.Y., USA) of brains collected from the control rats. Blank rat plasma was prepared by centrifugation (8000 rcf for 3.5 min) of blood collected from control rats. […] The mixtures were incubated at 37° C. with 100 rpm in a water bath for 1 or 3 hr. The incubation was terminated by addition twice the volume of acetonitrile and centrifugation at 13000 rcf for 10 min. The supernatant was collected for LC/MS/MS analysis.

DsRedCAG0 Drosophila = experiment: Pseudopupil assay in DsRedCAG0 control Drosophila (toxicity of peptide); assay type: in vivo; conditions: up to 50 μM
Description: Because of the aim to develop P3V8 into a potent inhibitor that targets RNA toxicity in degenerating cells within the nervous system, it was assessed whether P3V8 had deleterious effects on neuronal cells by determining lactate dehydrogenase release in the culturing medium of rat cortical neurons.
as §1, with “For viability test of wild-type flies from egg to adult stage, eggs born within 5 hr were collected and cultured in fly food containing 10 or 50 μM of respective peptides at 21.5° C.” left out, “Each experiment was repeated for three times (at least 130 eggs were examined in each group). Two batches of independently synthesized peptides were used in the experiments.” left out

[3] = 1000 ng/mL, incubation for 1 hr
[4] = 2000 ng/mL, incubation for 1 hr, 60 min
[5] = 2000 ng/mL, incubation for 3 hr

Row | Molecule | pseudopupil score (DsRedCAG100 flies; 1 μM treatment, 12 day-old flies) | suppression of neurotoxicity / retinal degeneration (DsRedCAG100 flies) | effect on expanded CAG RNA-induced cytotoxicity [1] | effect on expanded CAG RNA-induced cell death ([1]; peptide alone, without DeliverX) | cellular uptake (HEK293 cells) | Pecentage of remained [2, 3] | Pecentage of remained ([2]; 2000 ng/mL, incubation for 1 hr) | Pecentage of remained [2, 4] | Pecentage of remained [2, 5] | remaining at 1 h, 2000 ng/mL ([2]; male, Sprague-Dawley, rat, rat brain homogenate, 2000 ng/mL, incubation for 1 hr, read-out: Pecentage of remained) | effect on DsRedCAG0 Drosophila (DsRedCAG0 Drosophila) | IC50 ([1]; 72 hr, read-out: IC50 (inhibition of cell death, LDH)) | cellular concentration compared to P3V8 (HEK293 cells; 500 nM and 1 μM treatment) | Pecentage of remained ([2]; 500 ng/mL, incubation for 1 hr) | Pecentage of remained ([2]; 500 ng/mL, incubation for 3 hr) | Pecentage of remained ([2]; 1000 ng/mL, incubation for 3 hr) | Pecentage of remained ([2]; 2000 ng/mL, incubation for 3 hr, 180 min) | remaining at 3 h, 2000 ng/mL ([2]; male, Sprague-Dawley, rat, tissue homogenate, 2000 ng/mL, incubation for 3 hr, read-out: Pecentage of remained)
1 | Ac-DGKSKGIAYIEFK-NH2 [P3V8] | 4.32±0.25 | significantly suppressed neurotoxicity | effectively alleviate the cytotoxicity | did not exert any cellular effect | no uptake | 4.0 ± 1.6% | 3.3% | 3.3 ± 0.6% | almost completely degraded | 3% | did not show any observable effect | – | – | – | – | – | – | –
2 | CCCCCCCCCCCCCCCC(=O)N[C@@H](CC(=O)O)C(=O)NCC(=O)N[C@@H](CCCCN)C(=O)N[C@@H](CO)C(=O)N[C@@H](CCCCN)C(=O)NCC(=O)N[C@H](C(=O)N[C@@H](C)C(=O)N[C@@H](Cc1ccc(O)cc1)C(=O)N[C@H](C(=O)N[C@@H](CCC(=O)O)C(=O)N[C@@H](Cc1ccccc1)C(=O)N[C@@H](CCCCN)C(N)=O)[C@@H](C)CC)[C@@H](C)CC [L1P3V8] (Palmitoyl-DGKSKGIAYIEFK-NH2) | – | suppressed retinal degeneration | – | – | low cellular concentration | 22.8 ± 1.2 % | – | 45.0 ± 3.5 % | ~21.2% | – | no cytotoxic effects | ~100 nM | higher cellular concentration | <20^# % | <20^# % | 15.8 ± 0.7% | 21.2 ± 3.0% | ~21%
